# Measured values taken from ChEMBL document CHEMBL3046001, “4-Thiazolidinone and 1-thia-3,4,9-triaza fluorene conjugates: synthesis, characterization and antimicrobial screening” (2013).
# Calls of active or inactive are those of the source. The rule behind the calls is not given here.
# Assays:
# Bacillus pumilus [1] = assay: Antibacterial activity against Bacillus pumilus MTCC 1456 assessed as growth inhibition after 24 hr by tube dilution method; format: functional; conditions: MTCC 1456, 24 h
# Bacillus pumilus [2] = assay: Antibacterial activity against Bacillus pumilus MTCC 1456 assessed as growth inhibition at 250 ug/mL after 48 hr by agar diffusion method; format: functional; conditions: MTCC 1456, 48 h, read-out: DIZ
# Escherichia coli [3] = assay: Antibacterial activity against Escherichia coli MTCC 1573 assessed as growth inhibition after 24 hr by tube dilution method; format: functional; conditions: MTCC 1573, 24 h
# Escherichia coli [4] = assay: Antibacterial activity against Escherichia coli MTCC 1573 assessed as growth inhibition at 250 ug/mL after 48 hr by agar diffusion method; format: functional; conditions: MTCC 1573, 48 h, read-out: DIZ
# Staphylococcus aureus [5] = assay: Antibacterial activity against Staphylococcus aureus MTCC 1430 assessed as growth inhibition after 24 hr by tube dilution method; format: functional; conditions: MTCC 1430, 24 h
# Micrococcus luteus [6] = assay: Antibacterial activity against Micrococcus luteus MTCC 1538 assessed as growth inhibition at 750 ug/mL after 48 hr by agar diffusion method; format: functional; conditions: MTCC 1538, 48 h, read-out: DIZ
# Bacillus subtilis [7] = assay: Antibacterial activity against Bacillus subtilis MTCC 441 assessed as growth inhibition at 1250 ug/mL after 48 hr by agar diffusion method; format: functional; conditions: MTCC 441, 48 h, read-out: DIZ
# Micrococcus luteus [8] = assay: Antibacterial activity against Micrococcus luteus MTCC 1538 assessed as growth inhibition at 500 ug/mL after 48 hr by agar diffusion method; format: functional; conditions: MTCC 1538, 48 h, read-out: DIZ
# Escherichia coli [9] = assay: Antibacterial activity against Escherichia coli MTCC 1573 assessed as growth inhibition at 100 ug/mL after 48 hr by agar diffusion method; format: functional; conditions: MTCC 1573, 48 h, read-out: DIZ
# Micrococcus luteus [10] = assay: Antibacterial activity against Micrococcus luteus MTCC 1538 assessed as growth inhibition after 24 hr by tube dilution method; format: functional; conditions: MTCC 1538, 24 h
# Penicillium chrysogenum [11] = assay: Antifungal activity against Penicillium chrysogenum MTCC 161 assessed as growth inhibition at 100 ug/mL after 48 hr by agar diffusion method; format: functional, organism-based
# Aspergillus niger [12] = assay: Antifungal activity against Aspergillus niger MTCC 2546 assessed as growth inhibition at 750 ug/mL after 48 hr by agar diffusion method; format: functional; conditions: MTCC 2546, 48 h, read-out: DIZ
# Aspergillus niger [13] = assay: Antifungal activity against Aspergillus niger MTCC 2546 assessed as growth inhibition at 1000 ug/mL after 48 hr by agar diffusion method; format: functional; conditions: MTCC 2546, 48 h, read-out: DIZ
# Escherichia coli [14] = assay: Antibacterial activity against Escherichia coli MTCC 1573 assessed as growth inhibition at 1000 ug/mL after 48 hr by agar diffusion method; format: functional; conditions: MTCC 1573, 48 h, read-out: DIZ
# Pseudomonas fluorescens [15] = assay: Antibacterial activity against Pseudomonas fluorescens MTCC 2421 assessed as growth inhibition at 100 ug/mL after 48 hr by agar diffusion method; format: functional
# Bacillus pumilus [16] = assay: Antibacterial activity against Bacillus pumilus MTCC 1456 assessed as growth inhibition at 1250 ug/mL after 48 hr by agar diffusion method; format: functional; conditions: MTCC 1456, 48 h, read-out: DIZ
# Bacillus pumilus [17] = assay: Antibacterial activity against Bacillus pumilus MTCC 1456 assessed as growth inhibition at 500 ug/mL after 48 hr by agar diffusion method; format: functional; conditions: MTCC 1456, 48 h, read-out: DIZ
# Pseudomonas fluorescens [18] = assay: Antibacterial activity against Pseudomonas fluorescens MTCC 2421 assessed as growth inhibition after 24 hr by tube dilution method; format: functional; conditions: MTCC 2421, 24 h
# Aspergillus niger [19] = assay: Antifungal activity against Aspergillus niger MTCC 2546 assessed as growth inhibition at 250 ug/mL after 48 hr by agar diffusion method; format: functional
# Penicillium chrysogenum [20] = assay: Antifungal activity against Penicillium chrysogenum MTCC 161 assessed as growth inhibition at 1250 ug/mL after 48 hr by agar diffusion method; format: functional; conditions: MTCC 161, 48 h, read-out: DIZ
# Bacillus pumilus [21] = assay: Antibacterial activity against Bacillus pumilus MTCC 1456 assessed as growth inhibition at 100 ug/mL after 48 hr by agar diffusion method; format: functional; conditions: MTCC 1456, 48 h, read-out: DIZ
# Bacillus subtilis [22] = assay: Antibacterial activity against Bacillus subtilis MTCC 441 assessed as growth inhibition at 100 ug/mL after 48 hr by agar diffusion method; format: functional; conditions: MTCC 441, 48 h, read-out: DIZ
# Bacillus pumilus [23] = assay: Antibacterial activity against Bacillus pumilus MTCC 1456 assessed as growth inhibition at 1000 ug/mL after 48 hr by agar diffusion method; format: functional; conditions: MTCC 1456, 48 h, read-out: DIZ
# Pseudomonas fluorescens [24] = assay: Antibacterial activity against Pseudomonas fluorescens MTCC 2421 assessed as growth inhibition at 500 ug/mL after 48 hr by agar diffusion method; format: functional; conditions: MTCC 2421, 48 h, read-out: DIZ
# Escherichia coli [25] = assay: Antibacterial activity against Escherichia coli MTCC 1573 assessed as growth inhibition at 500 ug/mL after 48 hr by agar diffusion method; format: functional; conditions: MTCC 1573, 48 h, read-out: DIZ
# Pseudomonas aeruginosa [26] = assay: Antibacterial activity against Pseudomonas aeruginosa MTCC 424 assessed as growth inhibition at 100 ug/mL after 48 hr by agar diffusion method; format: functional; conditions: MTCC 424, 48 h, read-out: DIZ
# Pseudomonas aeruginosa [27] = assay: Antibacterial activity against Pseudomonas aeruginosa MTCC 424 assessed as growth inhibition after 24 hr by tube dilution method; format: functional; conditions: MTCC 424, 24 h
# Bacillus subtilis [28] = assay: Antibacterial activity against Bacillus subtilis MTCC 441 assessed as growth inhibition at 1000 ug/mL after 48 hr by agar diffusion method; format: functional; conditions: MTCC 441, 48 h, read-out: DIZ
# Micrococcus luteus [29] = assay: Antibacterial activity against Micrococcus luteus MTCC 1538 assessed as growth inhibition at 250 ug/mL after 48 hr by agar diffusion method; format: functional
# Pseudomonas fluorescens [30] = assay: Antibacterial activity against Pseudomonas fluorescens MTCC 2421 assessed as growth inhibition at 1250 ug/mL after 48 hr by agar diffusion method; format: functional; conditions: MTCC 2421, 48 h, read-out: DIZ
# Penicillium chrysogenum [31] = assay: Antifungal activity against Penicillium chrysogenum MTCC 161 assessed as growth inhibition after 24 hr by tube dilution method; format: functional; conditions: MTCC 161, 24 h
# Staphylococcus aureus [32] = assay: Antibacterial activity against Staphylococcus aureus MTCC 1430 assessed as growth inhibition at 500 ug/mL after 48 hr by agar diffusion method; format: functional; conditions: MTCC 1430, 48 h, read-out: DIZ
# Aspergillus niger [33] = assay: Antifungal activity against Aspergillus niger MTCC 2546 assessed as growth inhibition after 24 hr by tube dilution method; format: functional; conditions: MTCC 2546, 24 h
# Pseudomonas aeruginosa [34] = assay: Antibacterial activity against Pseudomonas aeruginosa MTCC 424 assessed as growth inhibition at 250 ug/mL after 48 hr by agar diffusion method; format: functional; conditions: MTCC 424, 48 h, read-out: DIZ
# Aspergillus niger [35] = assay: Antifungal activity against Aspergillus niger MTCC 2546 assessed as growth inhibition at 500 ug/mL after 48 hr by agar diffusion method; format: functional; conditions: MTCC 2546, 48 h, read-out: DIZ
# Micrococcus luteus [36] = assay: Antibacterial activity against Micrococcus luteus MTCC 1538 assessed as growth inhibition at 1250 ug/mL after 48 hr by agar diffusion method; format: functional; conditions: MTCC 1538, 48 h, read-out: DIZ
# Pseudomonas aeruginosa [37] = assay: Antibacterial activity against Pseudomonas aeruginosa MTCC 424 assessed as growth inhibition at 750 ug/mL after 48 hr by agar diffusion method; format: functional; conditions: MTCC 424, 48 h, read-out: DIZ
# Bacillus subtilis [38] = assay: Antibacterial activity against Bacillus subtilis MTCC 441 assessed as growth inhibition at 250 ug/mL after 48 hr by agar diffusion method; format: functional; conditions: MTCC 441, 48 h, read-out: DIZ
# Escherichia coli [39] = assay: Antibacterial activity against Escherichia coli MTCC 1573 assessed as growth inhibition at 750 ug/mL after 48 hr by agar diffusion method; format: functional; conditions: MTCC 1573, 48 h, read-out: DIZ
Compound,MIC (Bacillus pumilus [1]) [µg/mL],zone of inhibition at 250 µg/mL (Bacillus pumilus [2]) [mm],MIC (Escherichia coli [3]) [µg/mL],zone of inhibition at 250 µg/mL (Escherichia coli [4]) [mm],MIC (Staphylococcus aureus [5]) [µg/mL],zone of inhibition at 750 µg/mL (Micrococcus luteus [6]) [mm],zone of inhibition at 1250 µg/mL (Bacillus subtilis [7]) [mm],zone of inhibition at 500 µg/mL (Micrococcus luteus [8]) [mm],zone of inhibition at 100 µg/mL (Escherichia coli [9]) [mm],MIC (Micrococcus luteus [10]) [µg/mL],growth inhibition (GI) (Penicillium chrysogenum [11]),zone of inhibition at 750 µg/mL (Aspergillus niger [12]) [mm],zone of inhibition at 1000 µg/mL (Aspergillus niger [13]) [mm],zone of inhibition at 1000 µg/mL (Escherichia coli [14]) [mm],zone of inhibition at 1250 µg/mL (Bacillus pumilus [16]) [mm],zone of inhibition at 500 µg/mL (Bacillus pumilus [17]) [mm],MIC (Pseudomonas fluorescens [18]) [µg/mL],zone of inhibition at 1250 µg/mL (Penicillium chrysogenum [20]) [mm],zone of inhibition at 100 µg/mL (Bacillus pumilus [21]) [mm],zone of inhibition at 100 µg/mL (Bacillus subtilis [22]) [mm],other results
CC1SCC(=O)N1c1nnc2c3cc(Cl)ccc3nc-2s1 (stereo not drawn),40,10,30,11,150,14,21,10,9,150,inactive,13,15,19,18,12,150,20,8,8,growth inhibition (GI) (Pseudomonas fluorescens [15]): inactive; growth inhibition (GI) (Aspergillus niger [19]): inactive; zone of inhibition at 1000 µg/mL (Bacillus pumilus [23]): 15 mm; zone of inhibition at 500 µg/mL (Pseudomonas fluorescens [24]): 8 mm; zone of inhibition at 500 µg/mL (Escherichia coli [25]): 14 mm; zone of inhibition at 100 µg/mL (Pseudomonas aeruginosa [26]): 7 mm; MIC (Pseudomonas aeruginosa [27]): 50 µg/mL; zone of inhibition at 1000 µg/mL (Bacillus subtilis [28]): 19 mm; growth inhibition (GI) (Micrococcus luteus [29]): inactive; zone of inhibition at 1250 µg/mL (Pseudomonas fluorescens [30]): 19 mm; MIC (Penicillium chrysogenum [31]): 250 µg/mL; zone of inhibition at 500 µg/mL (Staphylococcus aureus [32]): 10 mm; MIC (Aspergillus niger [33]): 250 µg/mL; zone of inhibition at 250 µg/mL (Pseudomonas aeruginosa [34]): 9 mm; zone of inhibition at 500 µg/mL (Aspergillus niger [35]): 10 mm; zone of inhibition at 1250 µg/mL (Micrococcus luteus [36]): 19 mm; zone of inhibition at 750 µg/mL (Pseudomonas aeruginosa [37]): 17 mm; zone of inhibition at 250 µg/mL (Bacillus subtilis [38]): 10 mm; zone of inhibition at 750 µg/mL (Escherichia coli [39]): 17 mm
O=C1CSC(c2ccccn2)N1c1nnc2c3ccccc3nc-2s1 (stereo not drawn),50,10,40,9,200,14,18,11,7,250,inactive,14,15,18,21,15,50,17,8,8,"zone of inhibition at 100 µg/mL (Pseudomonas fluorescens [15]; MTCC 2421, 48 h, read-out: DIZ): 7 mm; zone of inhibition at 250 µg/mL (Aspergillus niger [19]; MTCC 2546, 48 h, read-out: DIZ): 8 mm; zone of inhibition at 1000 µg/mL (Bacillus pumilus [23]): 19 mm; zone of inhibition at 500 µg/mL (Pseudomonas fluorescens [24]): 13 mm; zone of inhibition at 500 µg/mL (Escherichia coli [25]): 13 mm; zone of inhibition at 100 µg/mL (Pseudomonas aeruginosa [26]): 7 mm; MIC (Pseudomonas aeruginosa [27]): 30 µg/mL; zone of inhibition at 1000 µg/mL (Bacillus subtilis [28]): 15 mm; zone of inhibition at 250 µg/mL (Micrococcus luteus [29]; MTCC 1538, 48 h, read-out: DIZ): 8 mm; zone of inhibition at 1250 µg/mL (Pseudomonas fluorescens [30]): 20 mm; MIC (Penicillium chrysogenum [31]): 150 µg/mL; zone of inhibition at 500 µg/mL (Staphylococcus aureus [32]): 9 mm; MIC (Aspergillus niger [33]): 150 µg/mL; zone of inhibition at 250 µg/mL (Pseudomonas aeruginosa [34]): 9 mm; zone of inhibition at 500 µg/mL (Aspergillus niger [35]): 11 mm; zone of inhibition at 1250 µg/mL (Micrococcus luteus [36]): 17 mm; zone of inhibition at 750 µg/mL (Pseudomonas aeruginosa [37]): 15 mm; zone of inhibition at 250 µg/mL (Bacillus subtilis [38]): 10 mm; zone of inhibition at 750 µg/mL (Escherichia coli [39]): 15 mm"
